Measured values taken from patent publication US12421253B2 (Mirati Therapeutics, Inc., priority 2020, dated 2025).

Key:
ASPC1 cells, pERK = test: Inhibition of KRas phosphorylation of ERK (Cisbio HTRF Advanced pERK assay); format: cell-based; conditions: Homo sapiens, ASPC1, 3 h, AsPC-1 cells, read-out: Inhibition (HTRF IC50 nM) of KRas-mediated Phosphorylation of ERK, AsPC-1
Summary of the method: (§1)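 Compound effect on ERK phosphorylation is measured after 3 h exposure of cells, seeded the previous day in RPMI with 10% FBS, to ten 3-fold dilutions starting at 10 uM. Lysates are probed by HTRF for pERK, with trametinib at 0.2 uM defining the minimum signal.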

MKN1 cells, pERK = test: as above; format: cell-based; conditions: Homo sapiens, MKN-1, 3 h, read-out: Inhibition (HTRF IC50 nM) of KRas-mediated Phosphorylation of ERK, MKN1
Summary of the method: as §1

PSN1 cells, pERK = test: as above; format: cell-based; conditions: Homo sapiens, PSN1, 3 h, read-out: Inhibition (HTRF IC50 nM) of KRas-mediated Phosphorylation of ERK, PSN1
Summary of the method: as §1

H727 cells, pERK = test: as above; format: cell-based; conditions: Homo sapiens, NCI-H727, 3 h, read-out: Inhibition (HTRF IC50 nM) of KRas-mediated Phosphorylation of ERK, H727
Summary of the method: as §1

A549 cells, pERK = test: as above; format: cell-based; conditions: Homo sapiens, 3 hrs, read-out: Inhibition (HTRF IC50 nM) of KRas-mediated Phosphorylation of ERK, A549
Summary of the method: as §1

H358 cells, pERK = test: as above; format: cell-based; conditions: Homo sapiens, NCI-H358, 3 hrs, read-out: Inhibition (HTRF IC50 nM) of KRas-mediated Phosphorylation of ERK, H358
Summary of the method: as §1

HCT116 cells, pERK = test: as above; format: cell-based; conditions: Homo sapiens, HCT-116, 3 hrs, read-out: Inhibition (HTRF IC50 nM) of KRas-mediated Phosphorylation of ERK, HCT116
Summary of the method: as §1

H460 cells, pERK = test: as above; format: cell-based; conditions: Homo sapiens, NCI-H460, 3 hrs, read-out: Inhibition (HTRF IC50 nM) of KRas-mediated Phosphorylation of ERK, H460
Summary of the method: as §1

KRas^G12V = molecular target: T1, KRas^G12V (Homo sapiens, UniProt P01116, G12V); test: KRas binding assay (TR-FRET displacement of Cy5 labelled tracer)
T1 construct: […]; biotin (biotinylated); purchased Accelegan Inc
Experimental: (§3) The ability of a compound to bind to KRas was measured using a TR-FRET displacement assay. […] After a 60-minute incubation at room temperature, the reaction was measured using a BMG LABTECH CLARIO star Plus via TR-FRET. […] The POC values were fit to a 4-parameter IC50 equation and the IC50 value reported.

KRas^G12R = molecular target: T2, KRas^G12R (Homo sapiens, UniProt P01116, G12R); test: as above
T2 construct: […]; biotin (biotinylated); purchased Accelegan Inc
Experimental: as §3

KRas^G12D = molecular target: T3, KRas^G12D (Homo sapiens, UniProt P01116, G12D); test: as above
T3 construct: […]; biotin (biotinylated); purchased Accelegan Inc
Experimental: as §3

[1] = test system: NCI-H460 (Q61H) cells, phospho-ERK; test: Inhibition of KRas-mediated phosphorylation of ERK (phospho-ERK/GAPDH antibody detection, LI-COR); format: cell-based; conditions: Homo sapiens, 3 hours
Summary of the method: (§2)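 Cells seeded 20,000/well, attached 12-14 h, then compound (0.5% DMSO) for 3 h. Formaldehyde-fixed, methanol-permeabilized cells stained for phospho-ERK (Thr202/Tyr204) and GAPDH; infrared imaging. Ratio expressed as % of DMSO control; IC50 from 4-parameter fit.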

[2] = test system: NCI-H727 (G12V) cells, phospho-ERK; test: as above; format: cell-based; conditions: Homo sapiens, 3 hours
Summary of the method: as §2

[3] = test system: AsPC-1 (G12D) cells, phospho-ERK; test: as above; format: cell-based; conditions: Homo sapiens, ASPC1, 3 hours
Summary of the method: as §2

T3 sequence (P01116 1-169 isoform P01116-2 G12D): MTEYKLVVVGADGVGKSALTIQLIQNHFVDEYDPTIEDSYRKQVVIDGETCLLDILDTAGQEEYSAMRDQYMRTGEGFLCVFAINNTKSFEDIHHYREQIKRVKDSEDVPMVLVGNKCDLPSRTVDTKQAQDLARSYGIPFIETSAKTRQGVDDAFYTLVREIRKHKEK
T1 sequence (P01116 1-169 isoform P01116-2 G12V): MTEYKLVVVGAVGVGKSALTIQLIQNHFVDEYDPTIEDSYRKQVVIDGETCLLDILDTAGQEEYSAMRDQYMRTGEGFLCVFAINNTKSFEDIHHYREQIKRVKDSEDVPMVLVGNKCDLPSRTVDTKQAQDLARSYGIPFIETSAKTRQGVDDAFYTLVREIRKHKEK
T2 sequence (P01116 1-169 isoform P01116-2 G12R): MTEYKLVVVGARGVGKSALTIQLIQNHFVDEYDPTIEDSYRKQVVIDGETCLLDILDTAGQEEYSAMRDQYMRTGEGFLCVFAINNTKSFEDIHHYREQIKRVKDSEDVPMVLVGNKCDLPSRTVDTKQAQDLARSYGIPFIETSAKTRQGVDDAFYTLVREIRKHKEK

| Structure (SMILES) | IC50 (ASPC1 cells, pERK) [nM] | IC50 (MKN1 cells, pERK) [nM] | IC50 (PSN1 cells, pERK) [nM] | IC50 (H727 cells, pERK) [nM] | IC50 (A549 cells, pERK) [nM] | IC50 (H358 cells, pERK) [nM] | IC50 (HCT116 cells, pERK) [nM] | IC50 (H460 cells, pERK) [nM] | IC50 (KRas^G12V) [nM] | IC50 (KRas^G12R) [nM] | IC50 (KRas^G12D) [nM] | IC50 [1] [nM] | IC50 [2] [nM] | IC50 [3] [nM] |
| --- | --- | --- | --- | --- | --- | --- | --- | --- | --- | --- | --- | --- | --- | --- |
| CCc1c(F)ccc2cc(O)cc(N3CCc4c(nc(OCC5(CN(C)C)CC5)nc4N4CCCC5(C4)NC(=O)NC5=O)C3)c12 (stereo not shown) [Example 201, 7-(2-((1-((dimethylamino)methyl)cyclopropyl)methoxy)-7-(8-ethyl-7-fluoro-3-hydroxynaphthalen-1-yl)-5,6,7,8-tetrahydropyrido[3,4-d]pyrimidin-4-yl)-1,3,7-triazaspiro[4.5]decane-2,4-dione] | 49 | 49 | 80.5 | 176 | 14 | 12 | 49 | 26 | ≤ 2 | 4 | ≤ 2 |  |  |  |
| CCc1c(F)ccc2cc(O)cc(N3CCc4c(nc(OCC5(CN(C)C)CC5)nc4N4C[C@@H]5C(=O)NC(=O)[C@@H]5C4)C3)c12 [Example 200, (3aS,6aR)-5-[2-[[1-[(dimethylamino)methyl]cyclopropyl]methoxy]-7-(8-ethyl-7-fluoro-3-hydroxy-1-naphthyl)-6,8-dihydro-5H-pyrido[3,4-d]pyrimidin-4-yl]-3a,4,6,6a-tetrahydropyrrolo[3,4-c]pyrrole-1,3-dione] | 62 | 27 | 9110 | 264 | 142 | 77 | 832 | 578 | ≤ 2 | ≤ 2 | ≤ 2 |  |  |  |
| CCc1c(F)ccc2cc(O)cc(N3CCc4c(nc(OC[C@@]56CCCN5C[C@H](F)C6)nc4N4CCC[C@]5(C4)NC(=O)NC5=O)C3)c12 [Example 196, (R)-7-(7-(8-ethyl-7-fluoro-3-hydroxynaphthalen-1-yl)-2-(((2R,7aS)-2-fluorohexahydro-1H-pyrrolizin-7a-yl)methoxy)-5,6,7,8-tetrahydropyrido[3,4-d]pyrimidin-4-yl)-1,3,7-triazaspiro[4.5]decane-2,4-dione] | 6 | 5 | 18 | 11 | 2 | 1 | 5 | 2 | ≤ 2 | ≤ 2 | ≤ 2 |  |  |  |
| CCc1c(F)ccc2cc(O)cc(N3CCc4c(nc(OC[C@@]56CCCN5C[C@H](F)C6)nc4N4CCCn5nc(C(=O)N(C)C)c(C)c5C4)C3)c12 [Example 189, 5-(7-(8-ethyl-7-fluoro-3-hydroxynaphthalen-1-yl)-2-(((2R,7aS)-2-fluorotetrahydro-1H-pyrrolizin-7a(5H)-yl)methoxy)-5,6,7,8-tetrahydropyrido[3,4-d]pyrimidin-4-yl)-N,N,3-trimethyl-5,6,7,8-tetrahydro-4H-pyrazolo[1,5-a][1,4]diazepine-2-carboxamide] | 2 | 4 | 2680 | 3 |  | 1 |  | 39 | 52 | ≤ 2 | ≤ 2 |  |  |  |
| CCc1c(F)ccc2cc(O)cc(N3CCc4c(nc(OC[C@@]56CCCN5C[C@H](F)C6)nc4N4CCCC(O)CC4)C3)c12 (stereo partly drawn) [Example 30, 1-(7-(8-ethyl-7-fluoro-3-hydroxynaphthalen-1-yl)-2-(((2R,7aS)-2-fluorohexahydro-1H-pyrrolizin-7a-yl)methoxy)-5,6,7,8-tetrahydropyrido[3,4-d]pyrimidin-4-yl)azepan-4-ol] | 86 | 16 | 3510 | 227 |  | 83 | 480 | 203 | ≤ 2 | ≤ 2 | ≤ 2 | 309 | 399 | 447 |
